Reference: US5807535A, “Metal complexes of hydroxyaryl containing aminocarboxylic acid chelating agents” (Australian Nuclear Science & Technology Organisation, priority 1992, dated 1998)
Like-named read-outs stand apart in the source and are kept apart here.

Assay: Biodistribution of 99mTc complexes in rats
Assay type: in vivo, Australian Albino Wistar Rats
Details: for tissue uptake at 0.5 min / tissue uptake at 1 min / tissue uptake at 0.05 h / tissue uptake at 5 min / tissue uptake at 10 min: rat; for tissue uptake at 0.5 min: 30 sec
Method in brief: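 Chelators were dissolved in basic saline, brought to about pH 6 with HCl, and reduced with excess stannous chloride before one equivalent volume of sodium 99mTcO4 (10-50 mCi/ml) was added, giving roughly 1 mg/ml chelator. Labelling efficacy was checked by ITLC-SG. Complexes were diluted in saline to 15 μCi/100 μl for rat biodistribution, with tissue uptake expressed as %ID/g.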

[1] = blood, rats, read-out: biodistribution blood
[2] = bone, rats, read-out: biodistribution bone
[3] = brain, rats, read-out: biodistribution brain
[4] = eyes, rats, read-out: biodistribution eyes
[5] = heart, rats, read-out: biodistribution heart
[6] = kidneys, rats, read-out: biodistribution kidneys
[7] = liver, rats, read-out: biodistribution liver
[8] = lungs, rats, read-out: biodistribution lungs
[9] = muscle, rats, read-out: biodistribution muscle
[10] = pancreas, rats, read-out: biodistribution pancreas
[11] = skin, rats, read-out: biodistribution skin
[12] = spleen, rats, read-out: biodistribution spleen
[13] = stomach, rats, read-out: biodistribution stomach
[14] = tail, rats, read-out: biodistribution tail
[15] = thymus, rats, read-out: biodistribution thymus
[16] = thyroid, rats, read-out: biodistribution thyroid
[17] = total git, rats, read-out: biodistribution tot GIT

With CC(C)(C)c1ccc(O)c(NC(=O)CN(CCN(CC(=O)O)CC(=O)Nc2cc(C(C)(C)C)ccc2O)CC(=O)O)c1 [Compound 4] the hepatobiliary passage (Tables 2 and 4) was “specifically traverse the hepatobiliary system”, the tissue uptake at 0.5 min [1] was 5.84 %ID/g and the tissue uptake at 1 min [1] was 3.96 %ID/g. The tissue uptake at 0.05 h (blood, rats, 3 minutes, selected data, read-out: Blood) was 1.71 %ID/g, the tissue uptake at 5 min [1] was 1.33 %ID/g and the tissue uptake at 10 min [1] was 0.99 %ID/g. The tissue uptake at 0.5 min [2] was 0.61 %ID/g, the tissue uptake at 1 min [2] was 0.54 %ID/g and the tissue uptake at 0.05 h (bone, rats, 3 min, read-out: biodistribution bone) was 0.32 %ID/g. It also gave a tissue uptake at 5 min [2] of 0.26 %ID/g, a tissue uptake at 10 min [2] of 0.19 %ID/g and a tissue uptake at 0.5 min [3] of 0.43 %ID/g. For the same compound, the tissue uptake at 1 min [3] was 0.26 %ID/g, the tissue uptake at 0.05 h (brain, rats, 3 min, read-out: biodistribution brain) was 0.12 %ID/g and the tissue uptake at 5 min [3] was 0.08 %ID/g. It also gave a tissue uptake at 10 min [3] of 0.06 %ID/g, a tissue uptake at 0.5 min [4] of 0.22 %ID/g and a tissue uptake at 1 min [4] of 0.19 %ID/g. For the same compound, the tissue uptake at 0.05 h (eyes, rats, 3 min, read-out: biodistribution eyes) was 0.15 %ID/g, the tissue uptake at 5 min [4] was 0.13 %ID/g and the tissue uptake at 10 min [4] was 0.16 %ID/g. It also gave a tissue uptake at 0.5 min [5] of 1.78 %ID/g, a tissue uptake at 1 min [5] of 1.26 %ID/g and a tissue uptake at 0.05 h (heart, rats, 3 min, read-out: biodistribution heart) of 0.65 %ID/g. It also gave a tissue uptake at 5 min [5] of 0.48 %ID/g, a tissue uptake at 10 min [5] of 0.36 %ID/g and a tissue uptake at 0.05 h (kidney, rats, 3 minutes, selected data, read-out: Kidney) of 4.54 %ID/g. The tissue uptake at 0.5 min [6] was 5.57 %ID/g, the tissue uptake at 1 min [6] was 4.86 %ID/g and the tissue uptake at 0.05 h (kidneys, rats, 3 min, read-out: biodistribution kidneys) was 4.54 %ID/g. The tissue uptake at 5 min [6] was 3.89 %ID/g, the tissue uptake at 10 min [6] was 2.33 %ID/g and the tissue uptake at 0.5 min [7] was 6.83 %ID/g. It also gave a tissue uptake at 1 min [7] of 8.03 %ID/g, a tissue uptake at 0.05 h (liver, rats, 3 minutes, selected data, read-out: Liver) of 7.89 %ID/g and a tissue uptake at 5 min [7] of 7.39 %ID/g. It also gave a tissue uptake at 10 min [7] of 4.9 %ID/g, a tissue uptake at 0.5 min [8] of 2.37 %ID/g and a tissue uptake at 1 min [8] of 1.67 %ID/g. The tissue uptake at 0.05 h (lungs, rats, 3 min, read-out: biodistribution lungs) was 1 %ID/g, the tissue uptake at 5 min [8] was 0.66 %ID/g and the tissue uptake at 10 min [8] was 0.53 %ID/g. The tissue uptake at 0.5 min [9] was 0.36 %ID/g, the tissue uptake at 1 min [9] was 0.29 %ID/g and the tissue uptake at 0.05 h (muscle, rats, 3 min, read-out: biodistribution muscle) was 0.22 %ID/g. For the same compound, the tissue uptake at 5 min [9] was 0.18 %ID/g, the tissue uptake at 10 min [9] was 0.13 %ID/g and the tissue uptake at 0.5 min [10] was 0.9 %ID/g. For the same compound, the tissue uptake at 1 min [10] was 0.69 %ID/g, the tissue uptake at 0.05 h (pancreas, rats, 3 min, read-out: biodistribution pancreas) was 0.55 %ID/g and the tissue uptake at 5 min [10] was 0.32 %ID/g. It also gave a tissue uptake at 10 min [10] of 0.39 %ID/g, a tissue uptake at 0.5 min [11] of 0.53 %ID/g and a tissue uptake at 1 min [11] of 0.51 %ID/g. It also gave a tissue uptake at 0.05 h (skin, rats, 3 min, read-out: biodistribution skin) of 0.46 %ID/g, a tissue uptake at 5 min [11] of 0.37 %ID/g and a tissue uptake at 10 min [11] of 0.36 %ID/g. It also gave a tissue uptake at 0.5 min [12] of 0.93 %ID/g, a tissue uptake at 1 min [12] of 0.8 %ID/g and a tissue uptake at 0.05 h (spleen, rats, 3 min, read-out: biodistribution spleen) of 0.42 %ID/g. It also gave a tissue uptake at 5 min [12] of 0.32 %ID/g, a tissue uptake at 10 min [12] of 0.27 %ID/g and a tissue uptake at 0.5 min [13] of 1.04 %ID/g. It also gave a tissue uptake at 1 min [13] of 0.95 %ID/g, a tissue uptake at 0.05 h (stomach, rats, 3 min, read-out: biodistribution stomach) of 3.09 %ID/g and a tissue uptake at 5 min [13] of 2.71 %ID/g. The tissue uptake at 10 min [13] was 3.8 %ID/g, the tissue uptake at 0.5 min [14] was 1.03 %ID/g and the tissue uptake at 1 min [14] was 0.53 %ID/g. For the same compound, the tissue uptake at 0.05 h (tail, rats, 3 min, read-out: biodistribution tail) was 0.39 %ID/g, the tissue uptake at 5 min [14] was 1.23 %ID/g and the tissue uptake at 10 min [14] was 0.32 %ID/g. It also gave a tissue uptake at 0.5 min [15] of 0.66 %ID/g, a tissue uptake at 1 min [15] of 0.49 %ID/g and a tissue uptake at 0.05 h (thymus, rats, 3 min, read-out: biodistribution thymus) of 0.31 %ID/g. It also gave a tissue uptake at 5 min [15] of 0.22 %ID/g, a tissue uptake at 10 min [15] of 0.19 %ID/g and a tissue uptake at 0.5 min [16] of 3.49 %ID/g. The tissue uptake at 1 min [16] was 2.28 %ID/g, the tissue uptake at 0.05 h (thyroid, rats, 3 min, read-out: biodistribution thyroid) was 1.11 %ID/g and the tissue uptake at 5 min [16] was 0.89 %ID/g. For the same compound, the tissue uptake at 10 min [16] was 0.79 %ID/g, the tissue uptake at 0.5 min [17] was 0.61 %ID/g and the tissue uptake at 1 min [17] was 0.74 %ID/g. It also gave a tissue uptake at 0.05 h (total git, rats, 3 min, read-out: biodistribution tot GIT) of 1.59 %ID/g, a tissue uptake at 5 min [17] of 2.62 %ID/g and a tissue uptake at 10 min [17] of 5.16 %ID/g. For the same compound, the tissue uptake at 10 min (urine, rats, read-out: biodistribution urine) was 0.08 %ID/g, the “liver versus kidney uptake” value (rats) was “preference for the liver uptake as opposed to the kidney” and the biodistribution blood (rats, 3 min) was 1.71 % Injected dose per gram. The biodistribution liver (rats, 3 min) was 7.89 % Injected dose per gram.
